This assay concerns G3-OTAapt1-FAM (F1) (DNA, aptamer) GGGGATCGGGTGTGGGTGGCGTAAAGGGAGCATC
In words: fluorescence quenching (FAM, guanine PIET). Particulars: Na+ 120 mM, Ca2+ 3 mM; 10 mM Tris-HCl pH 8.4, room temperature; 20 nM F1; calibration curve only.

On to `C[C@@H]1Cc2c(Cl)cc(C(=O)N[C@@H](Cc3ccccc3)C(=O)O)c(O)c2C(=O)O1`, for which the binding result is recorded as “yes”.

Source of the values: article PMC9138568 (2022).
